Converted amounts (≈) assume the structure as drawn.
Test system: E. Coli CUS2B
Experiment: Minimum inhibitory concentration assay
Format: cell-based
Settings: for resistance phenotype (CLSI breakpoints): E. Coli CUS2B clinical isolate; for MIC: Escherichia coli, E. Coli CUS2B
Description: To validate the E. Coli CUS2B resistance phenotype observed in the clinic, we measured the isolate's minimum inhibitory concentrations (MIC) for a variety of antibiotics from different classes (FIG. 17A). […] Two potent carbapenem antibiotics, meropenem and doripenem, were the only drugs to which the clinical isolate was susceptible. To investigate this partial carbapenem resistance, we focused on the E. Coli CUS2B response to ertapenem and meropenem. The structures of meropenem and ertapenem differ in the pyrrolidinyl ring's position 2 side chain (FIG. 17B). Meropenem's substituent amide group is thought to be responsible for increased potency against gram-negative organisms in comparison to imipenem. At this position ertapenem has a benzoate substituent group, which imbues the molecule with a net negative charge and increases its lipophilicity, resulting in increased plasma half-life but decreased affinity for membrane porins.
E. Coli CUS2B was provided the Dr. Nancy Madinger, at the University of Colorado Hospital Clinical Microbiology Laboratory's organism bank. The isolate was obtained via rectal swab from a pregnant patient. Unless otherwise mentioned, CUS2B was propagated in aerobic conditions at 37° C. in liquid cultures of cation-adjusted Mueller Hinton broth (CAMHB) with shaking at 225 rpm or on solid CAMHB with 15 g/L of agar. Minimum inhibitory concentration assays Three colonies were picked from a plate and used to inoculate three separate overnight cultures in 1 mL CAMHB each. After 16 hours, the cultures were diluted 1:10,000 and treated with a range of antibiotic concentrations, decreasing in 2-fold increments, in a 384 or 96-well microplate using three biological replicates per condition. Growth in the plate was monitored with a Tecan GENios (Tecan Group Ltd.) running Magellan™ software (v 7.2) at an absorbance of 461 590 nm every 20 minutes for 16 hours, with shaking between measurements. The minimum inhibitory concentration was identified as the lowest antibiotic concentration preventing growth.

Structure (SMILES): C[C@@H](O)[C@H]1C(=O)N2C(C(=O)O)=C(S[C@@H]3CN[C@H](CNS(N)(=O)=O)C3)[C@H](C)[C@H]12 [doripenem]
- resistance phenotype (CLSI breakpoints): susceptible

Structure (SMILES): C[C@@H](O)[C@H]1C(=O)N2C(C(=O)O)=C(S[C@@H]3CN[C@H](C(=O)Nc4cccc(C(=O)O)c4)C3)[C@H](C)[C@H]12 [ertapenem]
- resistance phenotype (CLSI breakpoints): resistant
- MIC: 2 µg/mL (≈ 4.21 µM)

Structure (SMILES): C[C@@H](O)[C@H]1C(=O)N2C(C(=O)O)=C(S[C@@H]3CN[C@H](C(=O)N(C)C)C3)[C@H](C)[C@H]12 [meropenem]
- resistance phenotype (CLSI breakpoints): susceptible
- MIC: 0.25 µg/mL (≈ 0.652 µM)

From patent US20230227815A1, “Systems, Methods, And Compositions For A Facile Accelerated Specific Therapeutic (Fast) Pipeline” (priority 2019, published 2023)
